Test results: PubChem BioAssay AID256 (DTP/NCI, 2004)
Where “and” joins values, the source holds several entries; their conditions need not be identical. Identical values can stand only once. Inconclusive results and toxic doses are left out. How the source made its calls: active means survival T/C of 150% or more; inactive means T/C below 125% in these data.

Tested on: CD2F1 mice, L1210 leukemia ip, survival T/C
Experiment: NCI In Vivo Anticancer Drug Screen. Data for tumor model L1210 Leukemia (intraperitoneal) in CD2F1 (CDF1) mice
Details: higher = longer survival
In short: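 Ratio T/C, where T is the treated-group value and C the vehicle-dosed control value, from mice implanted with a transplantable tumor.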

[1] = endpoint: mean survival time, dose: 100.0 mg/kg/injection, schedule: Q04DX003 (ip), vehicle: saline with Tween-80
[2] = endpoint: mean survival time, dose: 200.0 mg/kg/injection, schedule: Q04DX003 (ip), vehicle: saline with Tween-80
[3] = endpoint: mean survival time, dose: 400.0 mg/kg/injection, schedule: Q04DX003 (ip), vehicle: saline with Tween-80
[4] = endpoint: mean survival time, dose: 100.0 mg/kg/injection, schedule: Q01DX009 (ip), vehicle: saline with Tween-80
[5] = endpoint: mean survival time, dose: 200.0 mg/kg/injection, schedule: Q01DX009 (ip), vehicle: saline with Tween-80
[6] = endpoint: mean survival time, dose: 400.0 mg/kg/injection, schedule: Q01DX009 (ip), vehicle: saline with Tween-80
[7] = endpoint: mean survival time, dose: 50.0 mg/kg/injection, schedule: Q01DX009 (ip), vehicle: saline with Tween-80
[8] = endpoint: mean survival time, dose: 100.0 mg/kg/injection, schedule: Q04DX003 (ip), vehicle: saline
[9] = endpoint: mean survival time, dose: 100.0 mg/kg/injection, schedule: Q01DX009 (ip), vehicle: other
[10] = endpoint: mean survival time, dose: 75.0 mg/kg/injection, schedule: Q01DX001 (ip), vehicle: other

Measured: T/C

CCCCCCCC(=O)O[C@H]1[C@H]2[C@@H](CC1(C)C)C(=O)[C@]13O[C@H]1C(=O)[C@]1(CO1)[C@]23C
inactive: endpoint: median survival time, dose: 1.25 mg/kg/injection, schedule: Q01DX009 (ip), vehicle: saline with Tween-80 101 % of control | endpoint: median survival time, dose: 2.5 mg/kg/injection, schedule: Q01DX009 (ip), vehicle: saline with Tween-80 104 % of control | endpoint: median survival time, dose: 5.0 mg/kg/injection, schedule: Q01DX009 (ip), vehicle: saline with Tween-80 104 % of control | endpoint: median survival time, dose: 10.0 mg/kg/injection, schedule: Q01DX009 (ip), vehicle: saline with Tween-80 107 % of control | endpoint: median survival time, dose: 20.0 mg/kg/injection, schedule: Q01DX009 (ip), vehicle: saline with Tween-80 107 % of control

O=c1cc[nH]c(=O)o1
inactive: endpoint: mean survival time, dose: 42.0 mg/kg/injection, schedule: Q01DX009 (ip), vehicle: water 122 % of control | [1] 114 % of control | [2] 92 % of control | endpoint: median survival time, dose: 63.0 mg/kg/injection, schedule: Q01DX009 (ip), vehicle: water 87 % of control

Cc1c(N=[N+]=[N-])c(NS(=O)(=O)c2ccccc2)c(C)c(N=[N+]=[N-])c1NS(=O)(=O)c1ccccc1
inactive: [1] 96 % of control | [2] 93 % of control | [3] 93 % of control

c1cc2c3c(cccc3c1)C1C2C2c3cccc4cccc(c34)C12 (stereo not drawn)
inactive: endpoint: mean survival time, dose: 100.0 mg/kg/injection, schedule: Q01DX001 (ip), vehicle: saline with Tween-80 93 % of control | endpoint: mean survival time, dose: 200.0 mg/kg/injection, schedule: Q01DX001 (ip), vehicle: saline with Tween-80 97 % of control | endpoint: mean survival time, dose: 400.0 mg/kg/injection, schedule: Q01DX001 (ip), vehicle: saline with Tween-80 100 % of control

c1ccc(C2=C(c3ccccc3)C(c3ccccc3)(c3ccccc3)c3ccccc32)cc1
inactive: [1] 101 % of control | [2] 98 % of control | [3] 98 % of control

COc1ccc(-c2c3nc(c(-c4ccc(OC)cc4)c4ccc([nH]4)c(-c4ccc(OC)cc4)c4nc(c(-c5ccc(OC)cc5)c5ccc2[nH]5)C=C4)C=C3)cc1
inactive: endpoint: mean survival time, dose: 100.0 mg/kg/injection, schedule: Q04DX003 (ip), vehicle: Klucel (hydroxypropylcellulose) (HPC) 93 % of control | endpoint: mean survival time, dose: 200.0 mg/kg/injection, schedule: Q04DX003 (ip), vehicle: Klucel (hydroxypropylcellulose) (HPC) 101 % of control | endpoint: mean survival time, dose: 400.0 mg/kg/injection, schedule: Q04DX003 (ip), vehicle: Klucel (hydroxypropylcellulose) (HPC) 89 % of control

N#CC(C#N)=NNc1ccc(S(=O)(=O)c2ccc(NN=C(C#N)C#N)cc2)cc1
inactive: [4] 103 % of control | [5] 100 % of control | [6] 103 % of control

COc1cccc(N=Nc2c(N)nc(N)nc2N)c1
inactive: [7] 97 % of control

CC1(C(=O)O)CCCC2(C)C3=C(CCCC3)CCC12 (stereo not drawn)
inactive: [4] 96 % of control | [1] 98 % of control | [5] 93 % of control | [2] 93 % of control | [6] 102 % of control | [3] 90 % of control

CC(C)COCCCN
inactive: [8] 98 % of control

O=C(NC(CSSCC(NC(=O)OCc1ccccc1)C(=O)O)C(=O)O)OCc1ccccc1 (stereo not drawn)
inactive: [9] 95 % of control | endpoint: mean survival time, dose: 200.0 mg/kg/injection, schedule: Q01DX009 (ip), vehicle: other 95 % of control | endpoint: mean survival time, dose: 400.0 mg/kg/injection, schedule: Q01DX009 (ip), vehicle: other 98 % of control

CN(Cc1ccccc1)N=Nc1ccc(C(=O)O)cc1
inactive: endpoint: mean survival time, dose: 25.0 mg/kg/injection, schedule: Q01DX009 (ip), vehicle: other 105 % of control | endpoint: mean survival time, dose: 50.0 mg/kg/injection, schedule: Q01DX009 (ip), vehicle: other 108 % of control | [9] 101 % of control

COc1ccc(CN2CCCNCC2)cc1
inactive: endpoint: mean survival time, dose: 12.5 mg/kg/injection, schedule: Q01DX005 (ip), vehicle: water 95 % of control | endpoint: mean survival time, dose: 25.0 mg/kg/injection, schedule: Q01DX005 (ip), vehicle: water 95 % of control | endpoint: mean survival time, dose: 50.0 mg/kg/injection, schedule: Q01DX005 (ip), vehicle: water 97 % of control | endpoint: mean survival time, dose: 100.0 mg/kg/injection, schedule: Q01DX005 (ip), vehicle: water 101 % of control | endpoint: mean survival time, dose: 200.0 mg/kg/injection, schedule: Q01DX005 (ip), vehicle: water 95 % of control

CCOC(=O)C[n+]1ccccc1
inactive: [8] 107 % of control and 95 % of control | endpoint: mean survival time, dose: 200.0 mg/kg/injection, schedule: Q04DX003 (ip), vehicle: saline 90 % of control and 89 % of control

CCOC(=O)Nc1cc(NCc2ccccc2)c2[nH]cnc2n1
inactive: endpoint: mean survival time, dose: 100.0 mg/kg/injection, schedule: Q01DX001 (ip), vehicle: Klucel (hydroxypropylcellulose) (HPC) 89 % of control | endpoint: mean survival time, dose: 200.0 mg/kg/injection, schedule: Q01DX001 (ip), vehicle: Klucel (hydroxypropylcellulose) (HPC) 95 % of control | endpoint: mean survival time, dose: 400.0 mg/kg/injection, schedule: Q01DX001 (ip), vehicle: Klucel (hydroxypropylcellulose) (HPC) 98 % of control

Nc1cccnc1
inactive: endpoint: mean survival time, dose: 5.0 mg/kg/injection, schedule: Q04DX003 (ip), vehicle: saline 92 % of control | endpoint: mean survival time, dose: 10.0 mg/kg/injection, schedule: Q04DX003 (ip), vehicle: saline 94 % of control | endpoint: mean survival time, dose: 20.0 mg/kg/injection, schedule: Q04DX003 (ip), vehicle: saline 94 % of control

CCOC(=O)c1ccccc1C(C)CC (stereo not drawn)
inactive: [10] 98 % of control | endpoint: mean survival time, dose: 150.0 mg/kg/injection, schedule: Q01DX001 (ip), vehicle: other 97 % of control | endpoint: mean survival time, dose: 300.0 mg/kg/injection, schedule: Q01DX001 (ip), vehicle: other 95 % of control

O=C1CSC(=S)N1
inactive: [4] 89 % of control | [1] 105 % of control | [5] 97 % of control | [2] 92 % of control | [3] 94 % of control

CC12C(=O)C(C)(C(c3ccccc3)=C1c1ccccc1)C([N+](=O)[O-])C2c1ccccc1 (stereo not drawn)
inactive: endpoint: mean survival time, dose: 100.0 mg/kg/injection, schedule: Q04DX002 (ip), vehicle: saline with Tween-80 94 % of control | endpoint: mean survival time, dose: 200.0 mg/kg/injection, schedule: Q04DX002 (ip), vehicle: saline with Tween-80 97 % of control | endpoint: mean survival time, dose: 400.0 mg/kg/injection, schedule: Q04DX002 (ip), vehicle: saline with Tween-80 94 % of control

CC(=O)Oc1[nH]c(=O)c2cccc3c2c1CCC3
inactive: endpoint: median survival time, dose: 25.0 mg/kg/injection, schedule: Q01DX009 (ip), vehicle: saline with Tween-80 106 % of control | endpoint: median survival time, dose: 50.0 mg/kg/injection, schedule: Q01DX009 (ip), vehicle: saline with Tween-80 104 % of control | endpoint: median survival time, dose: 100.0 mg/kg/injection, schedule: Q01DX009 (ip), vehicle: saline with Tween-80 100 % of control and 104 % of control | endpoint: median survival time, dose: 200.0 mg/kg/injection, schedule: Q01DX009 (ip), vehicle: saline with Tween-80 97 % of control and 103 % of control | endpoint: median survival time, dose: 400.0 mg/kg/injection, schedule: Q01DX009 (ip), vehicle: saline with Tween-80 97 % of control and 108 % of control

CCOC(=O)CC(O)c1ccccc1 (stereo not drawn)
inactive: [7] 102 % of control | [4] 102 % of control | [5] 98 % of control

CC1=NN(c2cccc(S(=O)(=O)O)c2)C(=O)C1Cl (stereo not drawn)
inactive: [7] 98 % of control | [4] 95 % of control | [5] 95 % of control

O=S1(=O)CCC2C1C1(Cl)C(Cl)=C(Cl)C2(Cl)C1(Cl)Cl (stereo not drawn)
inactive: endpoint: mean survival time, dose: 12.5 mg/kg/injection, schedule: Q01DX009 (ip), vehicle: saline sonified 104 % of control | endpoint: mean survival time, dose: 12.5 mg/kg/injection, schedule: Q04DX003 (ip), vehicle: saline with Tween-80 103 % of control | endpoint: mean survival time, dose: 25.0 mg/kg/injection, schedule: Q01DX009 (ip), vehicle: saline sonified 103 % of control | endpoint: mean survival time, dose: 25.0 mg/kg/injection, schedule: Q04DX003 (ip), vehicle: saline with Tween-80 97 % of control | endpoint: mean survival time, dose: 50.0 mg/kg/injection, schedule: Q04DX003 (ip), vehicle: saline with Tween-80 98 % of control

C=CCOC(=O)CCN1CC1
inactive: endpoint: mean survival time, dose: 0.5 mg/kg/injection, schedule: Q01DX009 (ip), vehicle: saline with Tween-80 106 % of control | endpoint: mean survival time, dose: 1.0 mg/kg/injection, schedule: Q01DX009 (ip), vehicle: saline with Tween-80 103 % of control | endpoint: mean survival time, dose: 2.0 mg/kg/injection, schedule: Q01DX009 (ip), vehicle: saline with Tween-80 103 % of control

Nc1c(Cl)cc(Cl)cc1C(=O)O
inactive: endpoint: mean survival time, dose: 100.0 mg/kg/injection, schedule: Q01DX001 (ip), vehicle: saline 102 % of control | endpoint: mean survival time, dose: 200.0 mg/kg/injection, schedule: Q01DX001 (ip), vehicle: saline 100 % of control | endpoint: mean survival time, dose: 400.0 mg/kg/injection, schedule: Q01DX001 (ip), vehicle: saline 104 % of control

Nc1nc(N)c(N)c(NC(c2ccccc2)c2ccccc2)n1
inactive: [10] 100 % of control

O=C(O)CCCC(=O)c1ccccc1
inactive: endpoint: mean survival time, dose: 50.0 mg/kg/injection, schedule: Q01DX009 (ip), vehicle: Klucel (hydroxypropylcellulose) (HPC) 91 % of control | endpoint: mean survival time, dose: 100.0 mg/kg/injection, schedule: Q01DX009 (ip), vehicle: Klucel (hydroxypropylcellulose) (HPC) 91 % of control | endpoint: mean survival time, dose: 200.0 mg/kg/injection, schedule: Q01DX009 (ip), vehicle: Klucel (hydroxypropylcellulose) (HPC) 95 % of control
